According to patent US20250134889A1, “TARGETING IRE1 KINASE AND FMRP FOR PROPHYLAXIS, MANAGEMENT AND TREATMENT OF ATHEROSCLEROSIS” (CEDARS-SINAI MEDICAL CENTER, priority 2022, published 2025):

System: IRE1 kinase activity
Assay: ER stress-induced IRE1 and FMRP phosphorylation in transfected MEFs (western blot)
Assay type: cell-based, mouse
Details: AMG-18 25 μM 1 hour pre-treatment, TG 600 nM 4 hours
Method: FIGS. 1A-1K depict FMRP is a new inositol-requiring enzyme-1 (IRE1) kinase substrate. A representative blot is shown from at least n=3 independent experiments. Data are mean±SEM. Unpaired 1-test with Welch's correction or paired 1-test. * P≤0.05, ** P≤0.01, *** P≤0.001. • 1A. STING analysis of published IRE1 interactome proteins in relation to FMRP (Acosta-Alvear et al., 2018). • 1B. HEK293T cells were co-transfected with IRE1 and FMRP plasmids and stimulated with TG (600 nM) or TM (1 mg/ml) for 2 hours. Protein lysates were immunoprecipitated (IP) with anti-IRE1 or IgG (control) antibodies and analyzed by Western blotting using specific antibodies for FMRP and IRE1 (n=3). • 1C. RAW 264.7 mouse macrophages were treated with either oxLDL (50 μg/ml) or TG (300 nM) for 6 hours. Protein lysates were treated with λ Phosphatase (PPase) for 30 minutes and analyzed by western blotting using specific antibodies for pFMRP, FMRP, pIRE1, IRE1 and β-Actin. pFMRP/FMRP fold induction is depicted above the blots (n=6). • 1D. […] Protein lysates were analyzed by western blotting using specific antibodies for pFMRP, FMRP, pIRE1, IRE1 and β-Actin. pFMRP/FMRP-fold induction is depicted above the blots (n=5). • 1E. […] Protein lysates were analyzed by western blotting using specific antibodies for pFMRP, FMRP, pIRE1, IRE1 and β-Actin. pFMRP/FMRP fold induction is depicted above the blots (n=4). • 1F. […]

`Cc1ccc2c(NS(=O)(=O)c3ccccc3Cl)cccc2c1Oc1ncccc1-c1ccnc(N[C@H]2CCCNC2)n1` [AMG-18] was tested, and the “FMRP phosphorylation (pFMRP/FMRP)” value was “clearly reducing” and the IRE1 phosphorylation was “prevented”.
